Test: Solubility in DMSO or in DMSO and water
Conditions: isolates

CCCCCc1cc(O)c2c(c1)OC(C)(C)[C@@H]1CCC(C)=C[C@@H]21 [THC, tetrahydrocannabinol]
solubility in DMSO: soluble in DMSO
